Patent US5455251A, “Michellamine antiviral agents, compositions, and treatment methods” (The United States of America as represented by the …, priority 1993, dated 1995)
Entries after “also recorded” stand apart in the source; their conditions may differ. Like-named read-outs stand apart in the source and are kept apart here.

Columns and labels:
[1] = system: HIV-1; settings: cultured human lymphoblastoid cell lines; Yarchoan et al. 1986; cited from earlier work
[2] = system: HIV-2; experiment: Anti-HIV-2 (NIH-DZ strain) activity in MT-2 cells, XTT assay, 6 days; type: cell-based, HIV-2 NIH-DZ strain in human MT-2 cells; settings: for antiviral effects against HIV-2: free bases or HBr salts, NIH-DZ strain, MT-2 cells
Experimental: (§1) The human lymphocytic target cell lines, CEM-SS and MT-2, used in the antiviral assays were maintained in RPMI 1640 medium (Gibco, Grand Island, N.Y.) without phenol red and supplemented with 5% fetal bovine serum (FBS) (Gibco), 2 mM L-glutamine, and 50 μg/ml gentamicin (Gibco) (complete medium). Exponentially-growing CEM-SS or MT-2 cells were pelleted and resuspended at a concentration of 2.0×10^5 cells/ml in complete medium. For the HIV-1 studies, the Haitian variant of HIV, HTLV-IIIRFwas used. For the HIV-2 studies, the NIH-DZ strain or the CBL20 strain was used. Frozen virus stock solutions were thawed immediately before use and resuspended in complete medium to yield 1.2×10 ^5 SFU/ml.
(§2) The appropriate amounts of the pure compounds for anti-HIV evaluations were dissolved in 100% dimethylsulfoxide (DMSO) and then diluted in complete medium to the desired initial concentration (with final DMSO content not exceeding 1%). All serial dilutions of the michellamines A, B, and C, reagent additions, and plate-to-plate transfers were carried out using an automated Biomek 1000 Workstation (Beckman Instruments, Palo Alto, Calif.). […] Subsequently, aliquots of cell-free supernatant were removed from each well using the Biomek, and analyzed for reverse transcriptase activity, p24 antigen production, and synthesis of infectious virions (see further below). A 25 μl sample of 0.002% (w/v) Fluoricon reference particles (590/620 nm) (Baxter Healthcare Corp.) was added to each well of the test plate to be used as an internal standard for fluorescence assays. […]
(§3) As an estimate of cellular viability, the metabolic reduction of the tetrazolium salt, XTT, to the soluble, colored formazan was carried out by adding 50 μl of the XTT/PMS solution to each well of the original test plate and incubating for 4 hrs at 37° C. After incubation the plates were covered with adhesive plate sealers (Dynatech, Alexandria, Va.) and shaken, and optical densities were determined using a V-max photometer (Molecular Devices, Inc., Menlo Park, Calif.) at a test wavelength of 450 nm. […]

[3] = system: uninfected CEM-SS cells; experiment: Direct cytotoxicity to uninfected CEM-SS target cells (XTT/BCECF), 6 days; type: cell-based, human; settings: acetate salts, XTT assay, Table 4
Experimental: (§4) A battery of interrelated assays on individual wells from 96-well microtiter plates was performed to show antiviral activity. Measurements of cellular viability, in the presence and absence of the compounds in uninfected and virus-infected cells, by an adaptation of the procedure set forth in Weislow et al., J. Natl. Cancer Inst., 81, 577-586 (1989), as well as by an adaptation of a method using the fluorescent probe 2'-7'-biscar-boxyethyl-5(6)-carboxyfluorescein acetoxymethyl ester (BCECF) as set forth in Rink et al., J. Cell Biol., 95, 189-196 (1982), were performed as described herein below. BCECF is a nonfluorescent molecule which readily enters viable cells where it is hydrolyzed by cellular esterases to a fluorescent molecule. Total cellular DNA content was measured with the dye, 2-diamidino-phenylindole (DAPI), which fluoresces when intercalated at A-T specific sites in chromatin, according to the procedure set forth in McCaffrey et al., In Vitro Cell. Develop. Biol., 24, 247-252 (1988). These dyes are used in combination with Particle Concentration Fluorescent Immunoassay technology (PCFIA), specifically the Screen Machine™ available from Baxter Healthcare Corporation (Mundelein, Ill.). The Screen Machine is a semiautomated fluorescent plate reader capable of adding reagents and/or wash buffers to filter-bottomed, 96-well plates with the subsequent evacuation of fluid and concentration of fluorescently-stained cells on the cellulose acetate filter. Fluorescence is detected via epifluorescence. […]
(§5) The appropriate amounts of the pure compounds for anti-HIV evaluations were dissolved in 100% dimethylsulfoxide (DMSO) and then diluted in complete medium to the desired initial concentration (with final DMSO content not exceeding 1%). […] Subsequently, aliquots of cell-free supernatant were removed from each well using the Biomek, and analyzed for reverse transcriptase activity, p24 antigen production, and synthesis of infectious virions (see further below). […]

[4] = system: HIV; type: cell-based
Experimental: A portion (2.107 g) of this extract was suspended/dissolved in 330 ml of 5% aqueous HCl and extracted with four 100 ml aliquots of CHCl3.
The crude alkaloid fraction, obtained by acid-base partitioning, was subjected to centrifugal partition chromatography (CHCl3 --CH3 OH--0.5% HBr/H2 O, 5:5:3), and elution with the lower phase gave four fractions.

[5] = system: HIV-2; experiment: Anti-HIV-2 (CBL20 strain) activity in CEM-SS cells, XTT assay; type: cell-based, HIV-2 CBL20 strain in human CEM-SS cells; settings: acetate salts
Experimental: as §1
as §2, with “Calif.). Each compound was diluted initially in complete medium and added to a single column of a 96-well microtiter plate (dilution plate). The Biomek was used to perform eight serial dilutions of each drug and to transfer a 100 μl aliquot of each dilution to the test plate. Uninfected CEM-SS or MT-2 cells were plated at a density of 1×10^4 cells in 50 μl of complete medium. Diluted HIV-1 or HIV-2 virus was then added to appropriate wells in a volume of 50 μl to yield a multiplicity of infection of 0.6. Appropriate cell, virus, and drug controls were used, with the final volume in each well being 200 μl.” for “Calif.).”
as §3

[6] = system: HIV-1; experiment: Cytoprotection of HIV-1-infected CEM-SS cells, viability by XTT and/or BCECF, 6 days; type: cell-based; settings: acetate salts, XTT assay, HIV-1, side-by-side comparison (Table 4), read-out: EC50 (anti-HIV-1 activity)
Experimental: as §4, §5

[7] = Variable temperature NMR for spontaneous interconversion of atropisomers; type: physicochemical
Excerpt: Michellamine C appears to have the opposite configuration from michellamine A about the C-5/C-8' and C-5"'/C-8" bonds.

## Cc1cn([C@H]2C[C@H](N=[N+]=[N-])[C@@H](CO)O2)c(=O)[nH]c1=O [AZT]
[1]
  in vitro cytoprotective effects against HIV-1: in vitro cytoprotective effects against the HIV-1

## COc1cc(C)cc2c(-c3c(O)cc(O)c4c3C[C@@H](C)N[C@@H]4C)cc(-c3cc(-c4c(O)cc(O)c5c4C[C@@H](C)N[C@@H]5C)c4cc(C)cc(OC)c4c3O)c(O)c12 [Michellamine A]
[2]; listed as michellamine A
  antiviral effects against HIV-2: showed antiviral effects
[3]; Homo sapiens, CEM-SS
  IC50: 168 µM
[4]
  anti-HIV activity of isolated compounds: active
[5]; listed as michellamine A
  EC50: ~10 µM
  anti-HIV-2 potency, comparison in words: somewhat less potent
[6]; Human immunodeficiency virus 1, CEM-SS
  EC50: 9.6 µM

## COc1cc(C)cc2c(-c3c(O)cc(O)c4c3C[C@@H](C)N[C@@H]4C)cc(-c3cc(-c4c(O)cc(O)c5c4C[C@@H](C)N[C@@H]5C)c4cc(C)cc(OC)c4c3O)c(O)c12 [Michellamine B]
[2]; Human immunodeficiency virus 2, MT2, 144 h, read-out: concentration giving essentially complete protection against killing effects of HIV-2 upon MT-2 cells
  EC (essentially complete protection): 30 to 100 µM
[2]; listed as michellamine B
  antiviral effects against HIV-2: showed antiviral effects; also recorded: consistently was more potent than michellamine A against HIV-2
[3]; listed as B
  IC50: > 240 µM
[5]; listed as michellamine B
  EC50: < 2 µM
[6]; listed as B
  EC50: 9.6 µM

## COc1cc(C)cc2c(-c3c(O)cc(O)c4c3C[C@@H](C)N[C@@H]4C)cc(-c3cc(-c4c(O)cc(O)c5c4C[C@@H](C)N[C@@H]5C)c4cc(C)cc(OC)c4c3O)c(O)c12 [Michellamine C]
[3]; listed as C
  IC50: 193 µM
[5]; listed as michellamine C
  EC50: < 2 µM
[6]; listed as C
  EC50: 12.8 µM
[7]
  spontaneous interconversion: failed to show evidence of spontaneous interconversion
